Results reported in patent US20240109924A1, “IP4-4,6 SUBSTITUTED DERIVATIVE COMPOUNDS” (SANIFIT THERAPEUTICS, S.A., priority 2021, published 2024).

Assays:
[1] = test system: blood perfusion; test: In vivo blood perfusion (laser doppler perfusion imaging) in vitamin D3-induced limb ischemia rat model; settings: average blood perfusion recovery vs vehicle and sham (sham 100%), SD rats, 30 mg/kg s.c. daily D1-D5
Method: (§1) The effects of compounds 1, 6, 9, 14, 18, 31, and 39 over blood perfusion and tissue calcification after the inception of limb ischemia were tested using a rat model for a duration of 5 days. Limb ischemia was induced to all groups from D1 to D3 excepting the sham group, to which no ischemia was induced. The animals were administered placebo and active agent formulations from D1 to D5. Observations were taken at several points during the treatment from D0 to D5. All animals were weighed every day before treatment. Seventy-two male Sprague Dawley (SD) rats (Envigo Corp., Huntingdon, GB) weighing approximately 150-200 g were used. The rats were fed with a […]® Rod14-H diet ([…] GmbH, Soest, DE). The rats were divided in 9 groups, 8 animals per group, as follows: • Group 1-Control (Sham) • Group 2-Physiological saline solution • Group 3-Compound 1 • Group 4-Compound 6 • Group 5-Compound 9 • Group 6-Compound 14 • Group 7-Compound 18 • Group 8-Compound 31 • Group 9-Compound 39 Limb ischemia was induced in the rats of groups 2-9 by subcutaneous administration of 150,000 IU/kg vitamin D3 (cholecalciferol, Duphafral D3 1000; Zoetis Inc., Parsippany, NJ, US) in physiological saline solution (2 mL/kg) every day during D1 to D3. The rats of group 1 were not administered vitamin D3. The rats in groups 1 and 2 were administered 2 mL/kg of physiological saline solution daily from D1 to D5 via subcutaneous route. The animals in groups 3-9 were administered subcutaneously 30 mg/kg of compounds 1, 6, 9, 14, 18, 31, and 39, respectively, in physiological saline solution (2 mL/kg), every day from D1 to D5. Limb functional and ischemia status were evaluated by using a laser doppler perfusion imaging apparatus PeriCam PSI Normal Resolution (Perimed AB, Järfälla, SE) in all groups at D0 and D5. The perfusion difference and perfusion ratio were calculated by comparing the baseline and either D0 or D5 readings for each group. In addition, the blood perfusion ratio of each treatment group (i.e., groups 2 to 9) to sham group was also calculated. All rats of groups 1-9 were sacrificed on D5 30 minutes after dosing for determining their Ca baseline values. The animals were anesthetized by isoflurane inhalation. The whole aorta, carotids, femoral arteries, heart, and right kidney of the subjects were collected for calcium content measurement. The tissues were lyophilized for 48-72 h and weighed. The lyophilized tissues were then digested using a 1:1 HNO3:HClO4 mixture in a dry bath incubator for 2-4 h at 180° C. The digested tissues were subsequently diluted using ultra-pure MilliQ® water (MilliporeSigma (Merck KGaA), Burlington, MA, US) to a final volume of 5 mL (i.e., for femoral arteries and carotids) of 10 mL (i.e., for heart, kidneys, and aorta). Calcium content was quantified via inductively coupled plasma optical emission spectrometry (ICP-OES) using an Optima 7300 DV ICP-OES System spectrometer (PerkinElmer, Inc., Waltham, MA, US) according to the manufacturer's instructions. Average blood perfusion recovery compared to vehicle and sham were also calculated. Recovery for sham was 100%. Blood perfusion recovery calculated was using the following equation: 100-((BP sham-BP new drug)/(BP sham-BP vehicle)*100).

[2] = In vitro inhibition of calcium phosphate crystallization in human plasma (spectrophotometric assay); assay type: biochemical; settings: 0-100 μM, 1.5 mM phosphate, 12.5 mM calcium, pH 7.4, absorbance 550 nm, slope 6-24 min, read-out: Relative Potency
Method in brief: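 Human plasma spiked with compound (0-100 μM), centrifuged, then brought to final 1.5 mM phosphate and 12.5 mM calcium, pH 7.4. Absorbance at 550 nm read every 3 min for 30 min at rt; inhibition from slopes (6-24 min, absorbance vs log time) relative to blank plasma.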

[3] = test system: tissue calcification; test: In vivo tissue calcification (calcium content by ICP-OES) in vitamin D3-induced limb ischemia rat model; settings: SD rats, vitamin D3 150,000 IU/kg s.c. D1-D3, 30 mg/kg s.c. daily D1-D5, sacrifice D5; for Inhibition of calcification (%) Femoral: femoral arteries; for Inhibition of calcification (%) Kidney: right kidney
Method: as §1, with “D5.” for “D5. Limb functional and ischemia status were evaluated by using a laser doppler perfusion imaging apparatus PeriCam PSI Normal Resolution (Perimed AB, Järfälla, SE) in all groups at D0 and D5. The perfusion difference and perfusion ratio were calculated by comparing the baseline and either D0 or D5 readings for each group. In addition, the blood perfusion ratio of each treatment group (i.e., groups 2 to 9) to sham group was also calculated.”

Row | SMILES | BP recovery (%) [1] | EC50 [2] | Inhibition of calcification (%) Aorta [3] | Inhibition of calcification (%) Carotid [3] | Inhibition of calcification (%) Femoral [3] | Inhibition of calcification (%) Heart [3] | Inhibition of calcification (%) Kidney [3]
1 | O=C([O-])CCCCCO[C@@H]1[C@@H](OP(=O)([O-])[O-])[C@H](OCCCCCC(=O)[O-])[C@@H](OP(=O)([O-])[O-])[C@@H](OP(=O)([O-])[O-])[C@H]1OP(=O)([O-])[O-].[Na+].[Na+].[Na+].[Na+].[Na+].[Na+].[Na+].[Na+].[Na+].[Na+] [Compound 18, 4,6-O-bis(5-carboxypentyl)-myo-inositol-1,2,3,5-tetrakis(phosphate) decasodium salt] | Over (Average blood perfusion recovery over or under 25%.) | ≤ 5 µM | Under (Average inhibition percentage over or under 25% inhibition of calcification.) | Under (Average inhibition percentage over or under 25% inhibition of calcification.) | Under (Average inhibition percentage over or under 25% inhibition of calcification.) | Over (Average inhibition percentage over or under 25% inhibition of calcification.) | Over (Average inhibition percentage over or under 25% inhibition of calcification.)
2 | O=P([O-])([O-])O[C@@H]1[C@@H](OCCCCCO)[C@H](OP(=O)([O-])[O-])[C@H](OP(=O)([O-])[O-])[C@H](OP(=O)([O-])[O-])[C@H]1OCCCCCO.[Na+].[Na+].[Na+].[Na+].[Na+].[Na+].[Na+].[Na+] [Compound 6, 4,6-O-bis(5-hydroxypentyl)-myo-inositol-1,2,3,5-tetrakis(phosphate) octasodium salt] | Over (Average blood perfusion recovery over or under 25%.) | ≤ 5 µM | Over (Average inhibition percentage over or under 25% inhibition of calcification.) | Under (Average inhibition percentage over or under 25% inhibition of calcification.) | Over (Average inhibition percentage over or under 25% inhibition of calcification.) | Over (Average inhibition percentage over or under 25% inhibition of calcification.) | Over (Average inhibition percentage over or under 25% inhibition of calcification.)
3 | COCCCCCO[C@@H]1[C@@H](OP(=O)([O-])[O-])[C@H](OCCCCCOC)[C@@H](OP(=O)([O-])[O-])[C@@H](OP(=O)([O-])[O-])[C@H]1OP(=O)([O-])[O-].[Na+].[Na+].[Na+].[Na+].[Na+].[Na+].[Na+].[Na+] [Compound 9, 4,6-O-bis(5-methoxypentyl)-myo-inositol-1,2,3,5-tetrakis(phosphate) octasodium salt] | Over (Average blood perfusion recovery over or under 25%.) | ≤ 5 µM | Under (Average inhibition percentage over or under 25% inhibition of calcification.) | Under (Average inhibition percentage over or under 25% inhibition of calcification.) | Over (Average inhibition percentage over or under 25% inhibition of calcification.) | Over (Average inhibition percentage over or under 25% inhibition of calcification.) | Over (Average inhibition percentage over or under 25% inhibition of calcification.)
